In patent US5457092A, “Methods of promoting bone growth in mammals comprising administration of modified parathyroid hormone” (Gesellschaft fur Biotechnologische Forschung mbH (GBF), priority 1987, dated 1995):

Key:
[1] = system: chondrocytes isolated from the sterna of 16-day-old chicken embryos; assay: Incorporation of 3H-methylthymidine into total DNA of chicken embryo chondrocytes (Examples 1-3); assay type: cell-based
Text: FIG. 1 is a graph showing the stimulation of chondrocyte DNA synthesis by the addition of PTH and PTH fragments; expressed as the ratio of the rate of incorporation of ^3 H-methylthymidine into the total DNA of the induced cultures to that of the untreated control cultures.
FIGS. 2-6 are graphs showing the dosage/effect curves for the mitogenic activity of PTH and PTH fragments;
FIG. 1: In order to determine the incorporation of ^3 H-methylthymidine into total DNA the cells were cultivated on microtiter plates in M199 medium at a concentration of foetal calf serum (FCS) of less than 0.5% (by volume). The cell density of the chondrocytes that reacted to the addition of PTH with an increase in the incorporation of ^3 H-methylthymidine into the total DNA was from 1250 to 6000 cells/microtitre well (diameter 6 mm) at the time of plating-out. […] The incorporation of ^3 H-methylthymidine into the total DNA was determined as follows. After removing the radioactive medium, the adherent growing chondrocytes were washed with PBS and lysed in the microtitre wells. The total DNA was then precipitated under acid conditions at low temperature and transferred onto filter papers using a semi-automatic harvesting device. The rate of incorporation into total DNA could then be determined; cf. FIG. 1. […]

[2] = system: ROS 17/2.8 cells; assay: Inhibition of bPTH(1-34)-stimulated cAMP synthesis of intact ROS 17/2.8 cells; assay type: cell-based, rat; settings: 30 nM hPTH(28-48) added to 100 nM bPTH(1-34); 1 mM IBMX; 10 min
Method: FIG. 9 is a graphical representation showing the cAMP yields [nitrogenic effect of bPTH (1-34].
100 nM bPTH(1-34) were used to stimulate cAMP synthesis of intact ROS 17/2.8 cells (cell density 1.3×10^6 cells/cm^2) in the presence of 1 mM IBMX for 10 min. cAMP yields were determined by radio assay. Based on the conditions mentioned, the cAMP basal value of non-stimulated cells corresponds to 8 pmol/well. This effect of bPTH(1-34) can be inhibited by an additional doses of 30 nM hPTH(28-48) up to about 50%; cf. FIG. 9.

[3] = system: renal PTH receptor; settings: Adv. Protein Chemistry 35 (1982) 323 ff. (Potts et al.); cited from earlier work
[4] = system: chondrocytes isolated from the sterna of 16-day-old chicken embryos; assay: Determination of cell number of chondrocyte cultures; assay type: cell-based; settings: induced for 24 hours; non-induced 41,000 cells/ml
Method: FIG. 7 is a comparative graph showing cell number after incubation of the non-induced cultures compared to cultures induced with hPTH (28-48) for 24 hours.
FIG. 1: In order to determine the incorporation of ^3 H-methylthymidine into total DNA the cells were cultivated on microtiter plates in M199 medium at a concentration of foetal calf serum (FCS) of less than 0.5% (by volume). The cell density of the chondrocytes that reacted to the addition of PTH with an increase in the incorporation of ^3 H-methylthymidine into the total DNA was from 1250 to 6000 cells/microtitre well (diameter 6 mm) at the time of plating-out. […] The incorporation of ^3 H-methylthymidine into the total DNA was determined as follows. After removing the radioactive medium, the adherent growing chondrocytes were washed with PBS and lysed in the microtitre wells. The total DNA was then precipitated under acid conditions at low temperature and transferred onto filter papers using a semi-automatic harvesting device. The rate of incorporation into total DNA could then be determined; cf. FIG. 1. […] The concentration for semi-maximum stimulation was from 9 to 15 nM for bPTH(1-84) and from 50 to 75 nM for the PTH fragments bPTH(1-34) and bPTH(3-34). In contrast, the PTH fragment hPTH(28-48), which, according to Adv. Protein Chemistry, 35 (1982) 323 ff.

[5] = system: chondrocytes from sterna of 16-day-old embryonic chicks; assay: Stimulation of DNA synthesis in chondrocytes by PTH fragments (Table 1); assay type: cell-based, chick; settings: for [^3 H]thymidine incorporation: 4 h, control 324 ± 18; for E/C: stimulated / non-induced control cells
Method: Chondrocytes were isolated from sterna of 16-day-old embryonic chicks according to J. Biol. Chem., 261 (1986) 7997-8001 (10; Yasui et al.) with some modifications. Collagenase was dissolved in Hanks' balanced salt solution (0.4 mM Na2 HPO4, 140 mN NaCl, 5.3 mM KCl, 0.4 mM MgSO4, 1.3 mM CaCl2, 0.4 mM KH2 PO4, 0.5 mM MglC2, 5 mM glucose, 0.05% gentamicin) at a concentration of 286 units/ml. Sterna were treated repeatedly for 30 min with collagenase solution at 37° C. Cells first released by this procedure were discarded because of their very poor responsiveness towards PTH. The collagenase treatment was subsequently repeated leading to a highly homogenous cell population of chondrocytes. The cells obtained by a second collagenase treatment were collected by centrifugation (1000 rpm, 10 min), washed twice with medium (Dulbecco's modified Eagle's medium, GIBCO, supplemented with NaHCO3 (45 mM), glutamine (2 mM), penicillin G/streptomycin (65 mg/1 and 100 mg/l, respectively), Hepes (10 mM, pH 7.2), and FCS (10% v/v) and counted.
The DNA synthesis rate was assayed in monolayer culture by the incorporation of ]^3 H]thymidine into perchloric acid-precipitable material. […] After 17 h, the medium was replaced by 200 μl of serum-free medium. After 4 days, chondrocytes were incubated for 4 h with the appropriate effector and 1μ Ci of [^3 H]thymidine. Subsequently, medium was removed and the cells were washed twice with 200 μl of phosphate-buffered saline (PBS: 137 mM NaCl, 2.7 mN KCl, 1.5 mM KH2 PO4, 0.8 mN Na2 HPO4, pH 7.0). Then cells were lysed by 100 μl of 2% (v/v) Nonidet P- 40 and 2% (w/v) sodium dodecyl sulfate treatment and the perchloric acid-insoluble material was precipitated by adding an equal volume of ice-cold 2% (w/v) perchloric acid in the presence of 1% herring sperm DNA as carrier. After storage for 10 min at -20° C., the precipitated material of each well was transferred to glass fiber filters with a Scatron--As semiautomatic cell harvester. Filters were dried at 80° C. for 20 min, transferred into scintillation vials, and 2 ml of scintillation mixture (scintillator 299; United Technology Pachard) were added. Radioactivity of the samples was determined with a β counter (Minimax; United Technology Pachard). Each test consisted of 5 up to 10 identically treated wells and was repeated at least twice with freshly prepared chondrocytes.
The incorporation of [^3 H]thymidine by non-induced control cells and by stimulated cells is shown by C and E, respectively. The results shown mean ±S.E. for n parallel cell cultures.

Substance | EC50 ([1]; 3H-methylthymidine incorporation into total DNA, read-out: concentration for semi-maximum stimulation) | increase in the incorporation of 3H-methylthymidine into total DNA by a factor ([1]; ratio induced / untreated control cultures, depending on concentration) | inhibition of the cAMP synthesis stimulated by bPTH(1-34) [2] | binding to the renal PTH receptor [3] | total cell number [4] | [^3 H]thymidine incorporation ([5]; 6.1 × 10^-4 mol/l) | E/C ([5]; 6.1 × 10^-4 mol/l) | [^3 H]thymidine incorporation ([5]; 6.1 × 10^-5 mol/l) | E/C ([5]; 6.1 × 10^-5 mol/l) | [^3 H]thymidine incorporation ([5]; 6.1 × 10^-6 mol/l) | E/C ([5]; 6.1 × 10^-6 mol/l) | [^3 H]thymidine incorporation ([5]; 6.1 × 10^-7 mol/l) | E/C ([5]; 6.1 × 10^-7 mol/l) | [^3 H]thymidine incorporation ([5]; 6.1 × 10^-8 mol/l) | E/C ([5]; 6.1 × 10^-8 mol/l)
hPTH(28-48): mid-regional PTH fragment 28-48, human source (LQDVHNFVALGAPLAPRDAGS; Parathyroid hormone; UniProt P01270 59-79, looked up, fragment) | 349 nM | 6 | about 50% | does not bind to the renal PTH receptor | 63,000 cells/ml |  |  |  |  |  |  |  |  |  | 
hPTH(25-39): PTH fragment 25-39, human source (RKKLQDVHNFVALGA; Parathyroid hormone; UniProt P01270 56-70, looked up, fragment) |  |  |  |  |  | 542 ± 71 cpm | 1.67 | 655 ± 147 cpm | 2.02 | 517 ± 65 cpm | 1.60 | 418 ± 41 cpm | 1.29 | 452 ± 56 cpm | 1.40
